Measurements published in patent US8481459B2, “Chemical inhibitors of ethylene biosynthesis” (Academia Sinica, priority 2010, dated 2013).

Tested on: gene expression in etiolated eto1-4 seedlings
Experiment: Transcriptional profiling (ATH1 GeneChip microarray) of etiolated eto1-4 seedlings
Format: in vivo, Arabidopsis thaliana
Details: ratio eto1-4 treated to eto1-4 (no treatment)
Experimental: For chemical treatments, seeds were sown on 0.5×MS agar medium supplemented with 10 μM chemicals (AVG, compounds 9393, 9370, and 7303) or DMSO (as control). Arabidopsis seeds were stratified in the dark at 4° C. for 4 days, then germinated in the dark for 3 days at 22° C. Approximately 2,000 etiolated seedlings of the wild type or eto1-4 were used to collect tissues for preparation of total RNA in each microarray experiment with Arabidopsis ATH1 GeneChip (Affymetrix). Extraction of RNA followed an established protocol (Chang, et al. (1993) Plant Mol. Biol. Rep. 11, 113-117). Total RNA (10 μg) was used to prepare biotinylated cRNA for hybridization to ATH1 GeneChip in the experiments disclosed herein. Experiments were repeated by 2 independent biological duplicates, and candidate genes present in both experiments were selected for further analysis. The MASS method was used for data analysis and normalization by all sample medium. Candidate genes were selected by the following criteria. First, genes with 1.5-fold differential expression between the wild type and eto1-4 were selected as the master gene pool, which was then used for comparison in treatments with AVG and individual exemplary compounds. Data were presented in hierarchical clustering and Venn diagram format. Agilent GeneSpring GX and Bioconductor software were used to analyze the expression profile data. Gene Ontology descriptions were generated by GeneSpring GX and further referred to the TAR GO database. Raw data are available in the GEO database (http://www.ncbi.nlm.nih.gov/geo) with Accession no. GSE20897.
The filtered and normalized expression data set from 22810 probes on the ATH1 Genechip was used for hierarchical clustering of gene expression profiles for comparison between AVG and the exemplary invention compounds in eto1-4. It was identified that 1,446 genes show at least 1.5-fold difference in expression between the WT and eto1-4 and used them as the master gene pool for clustering analysis (FIG. 7A). […] These genes likely contribute to the etiolated phenotype of eto1-4 by responding to elevated endogenous ethylene. To determine whether the exemplary compounds have specific r overlapping functions with AVG to suppress the eto1-4 phenotype, genes that are regulated by individual exemplary invention compounds and AVG for Venn diagram analysis were clustered (FIG. 7B). More than 63% of genes (356/561 for compound 9393; 389/561 for compound 9370; 399/561 for compound 7303; FIG. 7B) with expression associated with AVG were co-regulated by the exemplary invention compounds, which indicates an overlap function in suppression of the ethylene phenotype in eto1-4. […] Next genes co-regulated by all of the exemplary invention compounds and AVG were examined by performing a clustering analysis using the co-regulated genes identified in FIG. 7B: 356 (compound 9393 vs AVG), 389 (compound 9370 vs AVG) and 399 genes (compound 7303 vs AVG). It was uncovered that 276 genes were co-regulated by all of the exemplary invention compounds and AVG (FIG. 7C and Table 2). On the basis of GO descriptions generated by Gene Spring GX and TAIR database, the 276 genes were divided into subgroups related to their biological functions (Table 2). […] In addition, stress- and pathogenesis-related genes were among the co-regulated genes, possibly because ethylene is involved in both biotic and abiotic stresses.
Genes (1446 non-redundant loci) were selected by 1.5-fold differential expression between eto1-4 and WT as the master pool for analysis. These genes were used for comparison between chemical treatments by AVG and the exemplary invention compounds. The finalized 276 genes that are co-regulated by AVG and all of the exemplary invention compounds are shown. Locus ID also present in Nemhauser et al. (Nemhauser, et al. (2006) Cell 126, 467-475).

COc1ccc(C2CC(=O)c3cnc(Nc4ccccc4)nc3C2)cc1 (centres unmarked) [Compound 7303]
Signal Fold Change AT3G14850, unknown biological function: 0.13
Signal Fold Change AT3G15890 protein kinase: 2.14
Signal Fold Change AT3G16450 jacalin lectin protein: 3.13
Signal Fold Change AT3G16470 jacalin lectin protein: 6.91
Signal Fold Change AT3G16690, unknown biological function: 4.80
Signal Fold Change AT3G17680, unknown biological function: 0.17
Signal Fold Change AT3G20130 cytochrome P450: 1.89
Signal Fold Change AT3G21770 peroxidase 30: 1.84
Signal Fold Change AT3G22620 lipid transfer protein: 2.70
Signal Fold Change AT3G23150 ethylene receptor, putative (ETR2): 0.18
Signal Fold Change AT3G23800, unknown biological function: 0.33
Signal Fold Change AT3G24670, unknown biological function: 0.38
Signal Fold Change AT3G25710 bHLH protein: 2.51
Signal Fold Change AT3G25730 AP2-containing transcription factor: 0.21
Signal Fold Change AT3G25980 mitotic spindle checkpoint protein: 2.49
Signal Fold Change AT3G27580 protein kinase: 0.46
Signal Fold Change AT3G28290, unknown biological function: 0.27
Signal Fold Change AT3G29250 short-chain dehydrogenase: 20.57
Signal Fold Change AT3G30775 proline oxidase, mitochondrial: 4.43
Signal Fold Change AT3G43270 pectinesterase protein: 0.33
Signal Fold Change AT3G44820, response to light stimulus, phototropic-responsive NPH3 protein: 2.99
Signal Fold Change AT3G44990 endo-xyloglucan transferase: 0.21
Signal Fold Change AT3G45710 proton-dependent oligopeptide transport (POT) protein: 4.30
Signal Fold Change AT3G46130 myb transcription factor (MYB48): 2.20
Signal Fold Change AT3G46700 UDP-glucosyl transferase: 7.33
Signal Fold Change AT3G47210, unknown biological function: 3.50
Signal Fold Change AT3G47250, unknown biological function: 5.15
Signal Fold Change AT3G49780 phytosulfokines 3 (PSK3): 9.23
Signal Fold Change AT3G50660 steroid 22-alpha-hydroxylase: 4.40
Signal Fold Change AT3G51410, unknown biological function: 0.21
Signal Fold Change AT3G51970, unknown biological function: 3.02
Signal Fold Change AT3G52180 protein tyrosine phosphatase: 0.22
Signal Fold Change AT3G52920 expressed protein (defense response): 3.88
Signal Fold Change AT3G53540, unknown biological function: 0.41
Signal Fold Change AT3G56480, unknown biological function: 2.86
Signal Fold Change AT3G58710 WRKY transcription factor: 2.61
Signal Fold Change AT3G59370, unknown biological function: 3.33
Signal Fold Change AT3G59710 short-chain dehydrogenase: 0.48
Signal Fold Change AT3G59900, unknown biological function: 0.39
Signal Fold Change AT3G60520, unknown biological function: 0.30
Signal Fold Change AT3G61160 shaggy-related protein kinase beta/ASK-beta (ASK2): 5.02
Signal Fold Change AT4G00730 anthocyaninless2: 0.54
Signal Fold Change AT4G01410, unknown biological function: 0.54
Signal Fold Change AT4G03140 short-chain dehydrogenase: 0.23
Signal Fold Change AT4G08300, unknown biological function: 4.13
Signal Fold Change AT4G09570 calcium-dependent protein kinase: 0.34
Signal Fold Change AT4G10910, unknown biological function: 4.49
Signal Fold Change AT4G11190 disease resistance-responsive protein: 9.71
Signal Fold Change AT4G11280 ACC synthase 6: 2.00
Signal Fold Change AT4G11310 cysteine proteinase: 17.92
Signal Fold Change AT4G12080, unknown biological function: 2.09
Signal Fold Change AT4G12410 auxin-responsive protein: 3.30
Signal Fold Change AT4G12480 lipid transfer protein: 0.06
Signal Fold Change AT4G13210, unknown biological function: 0.27
Signal Fold Change AT4G15550 UDP-glucose:indole-3-acetate beta-D-glucosyltransferase: 0.39
Signal Fold Change AT4G15920, unknown biological function: 23.20
Signal Fold Change AT4G17220 expressed protein (cytoskeleton organization and biogenesis): 2.48
Signal Fold Change AT4G18340 glycosyl hydrolase: 3.43
Signal Fold Change AT4G23410 senescence-associated protein: 1.83
Signal Fold Change AT4G25780, unknown biological function: 9.00
Signal Fold Change AT4G26010 peroxidase: 0.49
Signal Fold Change AT4G28085, unknown biological function: 3.16
Signal Fold Change AT4G31000, unknown biological function: 0.51
Signal Fold Change AT4G32920, unknown biological function: 2.81
Signal Fold Change AT4G34560, unknown biological function: 2.51
Signal Fold Change AT4G34760 auxin-responsive protein: 0.22
Signal Fold Change AT4G35060 copper chaperone: 3.90
Signal Fold Change AT4G35150, unknown biological function: 0.31
Signal Fold Change AT4G36520, unknown biological function: 2.99
Signal Fold Change AT4G37220 stress-responsive protein: 15.33
Signal Fold Change AT4G38690, signal transduction, 1-phosphatidylinositol: 3.39
Signal Fold Change AT4G39210 ADP-glucose pyrophosphorylase: 0.34
Signal Fold Change AT4G39800 inositol-3-phosphate synthase isozyme 1: 2.69
Signal Fold Change AT4G39840, unknown biological function: 0.36
Signal Fold Change AT5G01210, unknown biological function: 0.37
Signal Fold Change AT5G01300, unknown biological function: 2.28
Signal Fold Change AT5G02260, cell wall organization and biogenesis, expansin (EXP9): 0.23
Signal Fold Change AT5G02540 short-chain dehydrogenase: 0.33
Signal Fold Change AT5G03160 DNAJ heat shock N-terminal domain-containing protein: 2.24
Signal Fold Change AT5G04080, unknown biological function: 3.07
Signal Fold Change AT5G05180, unknown biological function: 1.98
Signal Fold Change AT5G06200, unknown biological function: 1.99
Signal Fold Change AT5G08240, unknown biological function: 2.56
Signal Fold Change AT5G08260 serine carboxypeptidase S10 protein: 0.35
Signal Fold Change AT5G08370 alpha-galactosidase: 3.99
Signal Fold Change AT5G09980 expressed protein (defense response): 0.28
Signal Fold Change AT5G10720 sensory transduction histidine kinase: 0.36
Signal Fold Change AT5G11540, unknown biological function: 6.69
Signal Fold Change AT5G12170, response to cadmium ion, expressed protein: 0.34
Signal Fold Change AT5G13870 endo-xyloglucan transferase: 0.19
Signal Fold Change AT5G13910 AP2/EREBP-like transcription factor: 0.40
Signal Fold Change AT5G14780 formate dehydrogenase: 0.41
Signal Fold Change AT5G14920 gibberellin-regulated protein: 0.33
Signal Fold Change AT5G15290, unknown biological function: 2.99
Signal Fold Change AT5G15530 biotin carboxyl carrier protein 2: 0.43
Signal Fold Change AT5G15830 bZIP transcription factor protein: 4.29
Signal Fold Change AT5G18470, unknown biological function: 0.24
Signal Fold Change AT5G18670 beta-amylase: 0.63
Signal Fold Change AT5G18860, unknown biological function: 3.13
Signal Fold Change AT5G18970, unknown biological function: 3.98
Signal Fold Change AT5G19890 peroxidase: 0.03
Signal Fold Change AT5G19930, unknown biological function: 1.84
Signal Fold Change AT5G20410 monogalactosyldiacylglycerol synthase: 2.86
Signal Fold Change AT5G22310, unknown biological function: 0.46
Signal Fold Change AT5G22860 serine carboxypeptidase S28 protein: 3.07
Signal Fold Change AT5G23750, unknown biological function: 4.93
Signal Fold Change AT5G24870, unknown biological function: 2.71
Signal Fold Change AT5G25140 cytochrome P450: 6.66
Signal Fold Change AT5G25160 zinc finger (C2H2 type) protein: 2.70
Signal Fold Change AT5G25190 ethylene-responsive element-binding protein: 0.25
Signal Fold Change AT5G34940, unknown biological function: 0.44
Signal Fold Change AT5G37300, unknown biological function: 5.67
Signal Fold Change AT5G38930, unknown biological function: 0.16
Signal Fold Change AT5G39860 bHLH protein: 4.44
Signal Fold Change AT5G41900 hydrolase: 4.02
Signal Fold Change AT5G44410, unknown biological function: 2.89
Signal Fold Change AT5G44580, unknown biological function: 0.14
Signal Fold Change AT5G46890 lipid transfer protein: 3.10
Signal Fold Change AT5G47240, unknown biological function: 8.92
Signal Fold Change AT5G47330 palmitoyl protein thioesterase protein: 2.34
Signal Fold Change AT5G47450 major intrinsic protein: 2.81
Signal Fold Change AT5G47950, unknown biological function: 4.37
Signal Fold Change AT5G48490 lipid transfer protein: 3.78
Signal Fold Change AT5G48900, unknown biological function: 0.58
Signal Fold Change AT5G49900, unknown biological function: 3.82
Signal Fold Change AT5G50720 ABA-responsive protein (HVA22e): 2.97
Signal Fold Change AT5G52120 SKP1 interacting partner 3 protein: 11.57
Signal Fold Change AT5G53190, unknown biological function: 7.32
Signal Fold Change AT5G53830, unknown biological function: 0.30
Signal Fold Change AT5G56320, cell wall organization and biogenesis, expansin (EXP14): 4.57
Signal Fold Change AT5G58660, unknown biological function: 0.40
Signal Fold Change AT5G59540 oxidoreductase: 0.34
Signal Fold Change AT5G63450 cytochrome P450: 16.44
Signal Fold Change AT5G63650 serine/threonine protein kinase: 0.59
Signal Fold Change AT5G65970 seven transmembrane MLO protein: 2.84
Signal Fold Change AT5G66310, microtubule-based movement, kinesin motor protein: 0.48
Signal Fold Change AT5G66400 dehydrin (RAB18): 1.10
Signal Fold Change AT5G66440, unknown biological function: 0.32
Signal Fold Change AT5G66460 (1-4)-beta-mannan endohydrolase: 0.52
Signal Fold Change AT5G66780, unknown biological function: 1.48
